Data taken from ChEMBL document CHEMBL1137487, “Synthesis and biological activities of glycosphingolipid analogues from marine sponge Aplysinella rhax” (Bioorg Med Chem Lett, 2007).
Calls of active or inactive are those of the source. No cut-off for these calls is given here.

system: J774.1; experiment: Inhibition of LPS-stimulated nitric oxide production in J774.1 cells; assay type: functional, cell-based; conditions: Mus musculus

SMILES	Activity
CC(=O)N[C@H]1[C@H](O[C@H]2[C@H](O[C@H]3O[C@H](C)[C@H](O)[C@H](O)[C@H]3O)[C@@H](NC(C)=O)[C@H](OCC[Si](C)(C)C)O[C@@H]2CO)O[C@H](CO)[C@H](O)[C@@H]1O	Active
CCCCCCCCCCCCCCC(CCCCCCCCCCCCCC)CO[C@@H]1O[C@H](CO)[C@@H](O[C@@H]2O[C@H](CO)[C@H](O)[C@H](O)[C@H]2O)[C@H](O[C@H]2O[C@H](C)[C@H](O)[C@H](O)[C@H]2O)[C@H]1NC(C)=O	Active
CCCCCCCCCCCCCCC(CCCCCCCCCCCCCC)CO[C@@H]1O[C@H](CO)[C@@H](O[C@@H]2O[C@H](CO)[C@H](O)[C@H](O)[C@H]2NC(C)=O)[C@H](O[C@H]2O[C@@H](C)[C@@H](O)[C@@H](O)[C@@H]2O)[C@H]1NC(C)=O (stereo in doubt)	Active
CCCCCCCCCCCCCCC(CCCCCCCCCCCCCC)CO[C@@H]1O[C@H](CO)[C@@H](O[C@@H]2O[C@H](CO)[C@H](O)[C@H](O)[C@H]2NC(C)=O)[C@H](O[C@H]2O[C@H](C)[C@H](O)[C@H](O)[C@H]2O)[C@H]1NC(C)=O	Active
